Read-outs that look alike come from different tables or passages of the source. Where a SMILES comes first, the peptide text is derived from it. [ ]: non-standard residue; d: D form. The star is where a group is joined. DOTA = O=C(O)CN1CCN(CC(=O)O)CCN(CC(=O)*)CCN(CC(=O)O)CC1; 1Nal = N[C@@H](Cc1cccc2ccccc12)C(=O)O; NMeNle = CCCC[C@H](NC)C(=O)O
Key:
[1] = Binding to serum proteins (incubation in human serum, Sephadex G-50 size exclusion chromatography); format: in vitro ADME; settings: 37 °C; for Binding to Serum Proteins (%): 500 pmol/mL
Description: Protein binding was determined by incubation of the radiolabeled peptides in human serum at 37 °C (500 pmol/mL, n = 2). For the time points of 1, 4, and 24 h after incubation, samples of 25 µL were subjected to Sephadex G-50 size exclusion chromatography (GE Healthcare Illustra, Little Chalfont, UK). The column and the eluate were measured using the γ-counter and the percentage of protein binding was calculated.

[2] = Distribution coefficient (LogD) in octanol/PBS; format: physicochemical; settings: radiolabeled peptide (111In-labeled where the label names no radiometal), shake-flask octanol/PBS, 100 pmol/mL, 15 min shaking at 1500 rpm, γ-counter, mean ± SD, n = 8
Description: The distribution coefficient (LogD) in octanol/PBS was determined by mixing 0.5 mL of the radiolabeled DOTA peptides diluted in PBS (100 pmol/mL) and 0.5 mL octanol in a 1.5 mL microcentrifuge tube (n = 8). After shaking for 15 min (MS3 Basic, IKA, Staufen, Germany) at 1500 rpm and a waiting time of 10 min to ensure appropriate separation of the two phases, 100 µL aliquots of each phase were pipetted into 4.5 mL tubes. The tubes were measured using a γ-counter (2480 Wizard2 3″, PerkinElmer Life Sciences and Analytical Instruments, formerly Wallac Oy, Turku, Finland) and the LogD value was determined using following equation: LogD=Log(cpmoctanol phase/cpmPBS phase)

[3] = In vitro stability in human serum (intact radiopeptide by radio-HPLC); format: in vitro ADME; settings: fresh human serum, 37 °C, n = 2; for Intact Radiopeptide in Human Serum (%): 1000 pmol/mL
Description: In vitro stability studies were performed in human serum (n = 2). The radiolabeled peptides (1000 pmol/mL) were incubated at 37 °C and a sample of 100 μL was taken at 1, 4, and 24 h after incubation. After the precipitation of proteins with ACN at 1:1.5 (v/v), centrifugation (14,000 rpm, 2 min, centrifuge 5424, Eppendorf AG, Germany) and dilution with water at 1:1 (v/v), an aliquot of 100 μL of this solution was analyzed by HPLC. Radioligand breakdown was monitored and the percentage of intact radiopeptide was calculated using Chromeleon Dionex Software (Version 7.2.9.11323). Additionally, the radiolabeled peptides (1000 pmol/mL) were incubated in PBS (n = 1) at room temperature to confirm the complex stability as a control.

human CCK2R [4] = target: T1, human CCK2R (Homo sapiens, UniProt P32239); experiment: Competitive binding assay against [125I][3-iodo-Tyr12,Leu15]gastrin-I on A431-CCK2R cells; settings: unlabeled peptide, 1 h at RT, radioligand [125I][3-iodo-Tyr12,Leu15]gastrin-I, mean ± sd of three independent experiments in triplicates
T1 construct: expressed in transfected cells; host or cells: A431 human epidermoid carcinoma cells, stably transfected (A431-CCK2R); originally provided by Dr. Luigi Aloj
T1 sequence (P32239 1-447): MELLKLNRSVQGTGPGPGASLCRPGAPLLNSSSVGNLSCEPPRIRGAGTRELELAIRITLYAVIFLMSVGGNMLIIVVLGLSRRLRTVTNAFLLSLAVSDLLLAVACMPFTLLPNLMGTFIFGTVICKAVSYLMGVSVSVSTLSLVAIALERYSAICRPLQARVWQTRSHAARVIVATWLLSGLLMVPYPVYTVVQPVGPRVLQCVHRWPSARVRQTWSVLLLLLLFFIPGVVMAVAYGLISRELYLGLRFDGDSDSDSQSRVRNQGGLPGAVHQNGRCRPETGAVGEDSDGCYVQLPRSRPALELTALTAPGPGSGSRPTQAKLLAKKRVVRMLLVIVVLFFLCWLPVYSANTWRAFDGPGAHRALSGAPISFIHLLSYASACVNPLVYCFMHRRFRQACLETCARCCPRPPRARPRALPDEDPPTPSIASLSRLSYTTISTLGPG
Text: (§1) A431 human epidermoid carcinoma cells overexpressing human CCK2R through stable transfection (A431-CCK2R) and the same cell line transfected with the empty vector (A431-mock) were used for cell assays. The cells are constantly available in our laboratory and were originally provided by Dr. Luigi Aloj. All cell culture media and reagents were obtained from Invitrogen Corporation (Lofer, Austria) or Sigma-Aldrich (Darmstadt, Germany). Dulbecco’s modified Eagle’s medium (DMEM) supplemented with 10% (v/v) fetal bovine serum and 1% of 100x penicillin−streptomycin−glutamine was used for cell culture. The cells were passaged three times per week using a 10x 2.5% trypsin-EDTA solution in a 1:2–1:3 ratio.
Receptor affinity studies of the DOTA-conjugates for the CCK2R was competitively evaluated against [^125I][3-iodo-Tyr^12,Leu^15]gastrin-I. The binding assays were performed in 96-well filter plates (MultiScreenHTS-FB, Merck Group, Darmstadt, Germany) as previously described. A431-CCK2R cells (200,000–400,000/well) were incubated for 1 h at RT with the peptides (concentration range of 0.01–1000 nM) and [^125I][3-iodo-Tyr^12,Leu^15]gastrin-I (~25,000 cpm). The incubation was arrested by filtering the medium by vacuum and rinsing twice rapidly with ice-cold binding assay buffer (10 mM TRIS/139 mM NaCl, pH 7.3). The filters were removed from the plate, transferred into 4.5 mL tubes and measured in the γ-counter. Data were normalized from 0 to 100 for graphical representation of exemplary binding curves. Origin software (Microcal Origin 6.1, Northampton, MA, USA) was used to calculate the half maximal inhibitory concentration (IC50) values by nonlinear regression and expressed as mean ± sd for three independent experiments performed in triplicates. An additional cell uptake study at 2 h after incubation was performed for DOTA-[(N-Me)1Nal^8]MGS5 radiolabeled with gallium-68 and lutetium-177 (see Figure S4 of the Supplementary Materials).

human CCK2R [5] = target: T1, human CCK2R; experiment: Calcium mobilization assay (fluo-4 AM) on A431-CCK2R cells; format: cell-based; settings: normalized to 10^−6 M pentagastrin, mean ± SEM of at least three independent experiments in triplicates
Text: as §1
Analog-induced receptor activation was evaluated by a calcium mobilization assay using the calcium-sensitive dye fluo-4 AM (ThermoFisher Scientific, Montigny-Le-Bretonneux, France), as previously described. Briefly, A431-CCK2R cells were seeded (60,000/well) in flat clear bottom black 96-well plates (Corning, Bagneaux-sur-Loing, France) coated with poly-L-ornithine (100 µg/mL, 1 h, 37 °C) (Sigma Aldrich, Saint Quentin Fallavier, France). Cytosolic Ca^2+ variations were measured before and after application of 50 µL of graded concentrations of the investigated peptides in the vicinity of the cells, and the effects on Ca^2+ mobilization were measured. Data were background corrected and normalized for the amplitudes caused by the medium alone (0%, no self-effect) or 10^−6 M pentagastrin (100%, maximal Ca^2+ mobilization response). Prism 4.0 software was used to calculate the EC50 values and the results were expressed as mean ± SEM for at least three independent experiments performed in triplicates.

[6] = radiolabeled peptide (111In where no radiometal named), 24 h after incubation, Sephadex G-50, γ-counter, n = 2
[7] = radiolabeled peptide (111In where no radiometal named), 24 h after incubation

Binding to Serum Proteins (%) [1, 6] [%]	LogD [2]	Intact Radiopeptide in Human Serum (%) [3, 7] [%]	IC50 (human CCK2R [4]) [nM]	EC50 (human CCK2R [5]) [nM]	Compound	also measured
27.8 ± 0.4	−1.3 ± 0.1	98.1 ± 1.1	–	–	CCCC[C@@H](C(=O)N[C@@H](CC(=O)O)C(=O)N[C@@H](Cc1cccc2ccccc12)C(N)=O)N(C)C(=O)[C@H](Cc1c[nH]c2ccccc12)NC(=O)CNC(=O)[C@H](Cc1ccc(O)cc1)NC(=O)[C@H](C)NC(=O)[C@@H](CCCCN)NC(=O)CN1CCN(CC(=O)O)CCN(CC(=O)O)CCN(CC(=O)O)CC1 [DOTA-[DLys^1]MGS5] ({DOTA}-[dK]AYGW[NMeNle]D[1Nal]-NH2) [listing 1 of 2 here]	–
–	–	–	0.9 ± 0.8	43.5 ± 14.1	CCCC[C@@H](C(=O)N[C@@H](CC(=O)O)C(=O)N[C@@H](Cc1cccc2ccccc12)C(N)=O)N(C)C(=O)[C@H](Cc1c[nH]c2ccccc12)NC(=O)CNC(=O)[C@H](Cc1ccc(O)cc1)NC(=O)[C@H](C)NC(=O)[C@@H](CCCCN)NC(=O)CN1CCN(CC(=O)O)CCN(CC(=O)O)CCN(CC(=O)O)CC1 [DOTA-[DLys^1]MGS5] ({DOTA}-[dK]AYGW[NMeNle]D[1Nal]-NH2) [listing 2 of 2 here]	–
–	–	–	0.7 ± 0.1	6.3 ± 3.6	CCCC[C@@H](C(=O)N[C@@H](CC(=O)O)C(=O)N[C@@H](Cc1ccccc1)C(N)=O)N(C)C(=O)[C@H](Cc1c[nH]c2ccccc12)NC(=O)CNC(=O)[C@H](Cc1ccc(O)cc1)NC(=O)[C@H](C)NC(=O)[C@@H](CCC(=O)O)NC(=O)CN1CCN(CC(=O)O)CCN(CC(=O)O)CCN(CC(=O)O)CC1 [DOTA-[Phe^8]MGS5] ({DOTA}-[dE]AYGW[NMeNle]DF-NH2)	–

The remaining lines, values behind:

Compound	Binding to Serum Proteins (%) [1, 6] [%]	LogD [2]	Intact Radiopeptide in Human Serum (%) [3, 7] [%]	IC50 (human CCK2R [4]) [nM]	EC50 (human CCK2R [5]) [nM]	also measured
CCCC[C@@H](C(=O)N[C@@H](CC(=O)O)C(=O)N[C@@H](Cc1ccc2ccccc2c1)C(N)=O)N(C)C(=O)[C@H](Cc1c[nH]c2ccccc12)NC(=O)CNC(=O)[C@H](Cc1ccc(O)cc1)NC(=O)[C@H](C)NC(=O)[C@@H](CCC(=O)O)NC(=O)CN1CCN(CC(=O)O)CCN(CC(=O)O)CCN(CC(=O)O)CC1 [DOTA-[2Nal^8]MGS5] [listing 1 of 2 here]	34.6 ± 0.3	−1.7 ± 0.2	92.0 ± 1.2	–	–	–
CCCC[C@@H](C(=O)N[C@@H](CC(=O)O)C(=O)N(C)[C@@H](Cc1cccc2ccccc12)C(N)=O)N(C)C(=O)[C@H](Cc1c[nH]c2ccccc12)NC(=O)CNC(=O)[C@H](Cc1ccc(O)cc1)NC(=O)[C@H](C)NC(=O)[C@@H](CCC(=O)O)NC(=O)CN1CCN(CC(=O)O)CCN(CC(=O)O)CCN(CC(=O)O)CC1 [DOTA-[(N-Me)1Nal^8]MGS5] [listing 1 of 2 here]	–	–	–	2.7 ± 0.3	63.4 ± 19.9	–
CCCC[C@@H](C(=O)N[C@@H](CC(=O)O)C(=O)N(C)[C@@H](Cc1cccc2ccccc12)C(N)=O)N(C)C(=O)[C@H](Cc1c[nH]c2ccccc12)NC(=O)CNC(=O)[C@H](Cc1ccc(O)cc1)NC(=O)[C@H](C)NC(=O)[C@@H](CCC(=O)O)NC(=O)CN1CCN(CC(=O)O)CCN(CC(=O)O)CCN(CC(=O)O)CC1 [DOTA-[(N-Me)1Nal^8]MGS5] [listing 2 of 2 here]	39.8 ± 4.2	−2.4 ± 0.3	99.6 ± 0.1	–	–	–
CCCC[C@@H](C(=O)N[C@@H](CC(=O)O)C(=O)N[C@@H](Cc1ccc2ccccc2c1)C(N)=O)N(C)C(=O)[C@H](Cc1c[nH]c2ccccc12)NC(=O)CNC(=O)[C@H](Cc1ccc(O)cc1)NC(=O)[C@H](C)NC(=O)[C@@H](CCC(=O)O)NC(=O)CN1CCN(CC(=O)O)CCN(CC(=O)O)CCN(CC(=O)O)CC1 [DOTA-[2Nal^8]MGS5] [listing 2 of 2 here]	–	–	–	1.7 ± 0.1	12.8 ± 2.4	–
CCCC[C@@H](C(=O)N[C@@H](CC(=O)O)C(=O)N[C@@H](Cc1cccc2ccccc12)C(=O)NC)N(C)C(=O)[C@H](Cc1c[nH]c2ccccc12)NC(=O)CNC(=O)[C@H](Cc1ccc(O)cc1)NC(=O)[C@H](C)NC(=O)[C@@H](CCC(=O)O)NC(=O)CN1CCN(CC(=O)O)CCN(CC(=O)O)CCN(CC(=O)O)CC1 [DOTA-MGS5[NHCH3]] [listing 1 of 2 here]	–	–	–	13.2 ± 1.5	41 ± 14.7	–
CCCC[C@@H](C(=O)N[C@@H](CC(=O)O)C(=O)N[C@@H](Cc1ccccc1)C(N)=O)N(C)C(=O)[C@H](Cc1c[nH]c2ccccc12)NC(=O)CNC(=O)[C@H](Cc1ccc(O)cc1)NC(=O)[C@H](C)NC(=O)[C@@H](CCC(=O)O)NC(=O)CN1CCN(CC(=O)O)CCN(CC(=O)O)CCN(CC(=O)O)CC1 [[^111In]In-DOTA-[Phe^8]MGS5, metal not drawn] ({DOTA}-[dE]AYGW[NMeNle]DF-NH2)	–	–	–	–	–	fraction unbound at 1 h, 500 pmol/mL ([1]; human, radiolabeled peptide, 1 h after incubation, Sephadex G-50, n = 2): 0.919; fraction unbound at 4 h, 500 pmol/mL ([1]; human, radiolabeled peptide, 4 h after incubation, Sephadex G-50, n = 2): 0.882; fraction unbound at 24 h, 500 pmol/mL [1, 6]: 0.798; LogD ([2]; read-out: LogD): -3.19 ± 0.06; remaining at 1 h, 1000 pmol/mL ([3]; human, radiolabeled peptide, 1 h after incubation): 99.5 ± 0.7%; remaining at 4 h, 1000 pmol/mL ([3]; human, radiolabeled peptide, 4 h after incubation): 92.5 ± 0.7%; remaining at 24 h, 1000 pmol/mL [3, 7]: 54 ± 0.8%
CCCC[C@@H](C(=O)N[C@@H](CC(=O)O)C(=O)N[C@@H](Cc1cccc2ccccc12)C(=O)NC)N(C)C(=O)[C@H](Cc1c[nH]c2ccccc12)NC(=O)CNC(=O)[C@H](Cc1ccc(O)cc1)NC(=O)[C@H](C)NC(=O)[C@@H](CCC(=O)O)NC(=O)CN1CCN(CC(=O)O)CCN(CC(=O)O)CCN(CC(=O)O)CC1 [DOTA-MGS5[NHCH3]] [listing 2 of 2 here]	40.9 ± 3.1	−2.3 ± 0.2	98.1 ± 0.4	–	–	–

From article PMC9959130, “Effects of Side Chain and Peptide Bond Modifications on the Targeting Properties of Stabilized Minigastrin Analogs” (Pharmaceuticals, 2023)
